For this assay, the system named is HBV. Description: HBV inhibition in HepAD38 cells, extracellular HBV DNA by direct qPCR. Type of assay: cell-based, hepatitis B virus. Particulars: for inhibition at 0.5 µM / inhibition at 0.1 µM / EC50 / inhibition at 1 µM: Hepatitis B virus; for inhibition at 0.5 µM / inhibition at 0.1 µM / inhibition at 1 µM: HepAD38, 96 hours, read-out: HBV inhibition % (conc μM); for EC50: HepAD38, 8-point dose-response, read-out: HBV inh EC50. The text has this: HepAD38 cell line (Ladner et al., Antimicrob Agents Chemother, 1997, 41, 1715-20) was used for HBV inhibition assays. HepAD38 is a subclone, derived from hepatoblastoma cell line HepG2 (ATCC® Number: HB-8065™), that expresses HBV genome under the transcriptional control of a tetracycline-responsive promoter in a TET-OFF system: addition of tetracycline (TET) or doxycycline suppresses HBV replication, while its removal switches on the process allowing HBV viral particles release in the cell supernatant. HepAD38 cell line is maintained in DMEM/F12, supplemented with 10% of fetal bovine serum, 1% of glutamine, 1% of penicillin/streptomycin, 0.4 mg/ml G418 and 0.3 ug/ml tetracycline. For the HBV inhibition assay, doxycycline-free medium is used in order to allow virion production.
HBV inhibition activity in vitro was performed in 96 multiwell plates. During the initial (primary) screening compounds were first tested in triplicates at concentrations of 0.1 μM, 0.5 μM and 1 μM. For selected compounds, an 8-point dose-response curve was obtained using 1:2 serial dilutions (starting from 2.5 μM, 1.25 μM or 0.4 μM, depending on the degree of inhibition observed during the primary screening). From the dose-response curves, half maximal effective concentration (EC50) could be calculated (see also below).
In more detail, compounds—typically dissolved in DMSO stock solutions—were diluted to 2× the final desired concentration in 100 μl of the above medium (without doxycycline) and plated in three replicates in the 96-well plates.
Simultaneously, HepAD38 cells—extensively pre-washed in tetracycline-free medium in order to induce HBV production—were suspended at 2*10^4 cells in 100 μl of tetracycline-free medium and added to each well of the plate, to yield a final assay volume of 200 μl.
DMSO, used for stock solutions and compounds dilutions, is always present in the assays at a final concentration of 0.5%.
Plates were then incubated 96 hours at 37° C. and then subjected to cell viability assays and extracellular HBV quantification, in order to evaluate both the cytotoxic potential and the anti-viral activity of compounds.
Cytotoxicity was assessed by a commercial fluorescence assay that measures the metabolic activity of cells, directly related to cell viability (Cell Titer Blue, Promega). For each compound, cytotoxicity was evaluated at the same concentration employed to evaluate its anti-HBV activity. Anti-HBV activity was evaluated by quantification of extracellular HBV DNA with direct qPCR. In particular, supernatant was collected and centrifuged for cell debris clarification, viral DNA was extracted from virions by addition of lysis buffer (1 mM 1,4-dithiothreitol, 0.2% sodium dodecyl sulphate) and incubated at 95° C. for 10 min. Samples were then diluted 1:40 and real time PCR amplification was performed with SYBR green assay (Power SYBR™ Green PCR Master Mix-Thermo Fisher Scientific) and specific HBV primer (HBV-DF:5′-[…]-3′ (SEQ ID No. 1), HBV-DR:5′-[…]-3′ (SEQ ID No. 2)).
All HBV inhibition or antiviral activity data are typically reported in percent (%) relative to a non-treated reference sample. Excel and Graphpad Prism programs are typically used for data elaboration and EC50 calculation.

The results in this text go back to patent US20210276967A1 (OSPEDALE SAN RAFFAELE S.R.L., priority 2018, published 2021).

In general, inhibition refers to the drop in the measured response relative to a control, in per cent. The term EC50 denotes the concentration giving half of the maximal effect.

Structures are written as SMILES. A value given as a limit tells only on which side of the number the result lay.

`Cc1cc(N)c(S(=O)(=O)N[C@@H](C)C(F)(F)F)cc1C(=O)Nc1cc(F)c(F)c(F)c1` [Example E64, (S)-4-amino-2-methyl-N-(3,4,5-trifluorophenyl)-5-(N-(1,1,1-trifluoropropan-2-yl)sulfamoyl)benzamide]: the inhibition at 0.5 µM is greater than 50%. Turning to `Nc1ccc(C(=O)Nc2ccc(F)c(Cl)c2)cc1S(N)(=O)=O` [Example E10, 4-amino-N-(3-chloro-4-fluorophenyl)-3-sulfamoylbenzamide], the inhibition at 0.5 µM was greater than 50%.

For `Cc1cc(N)c(S(N)(=O)=O)cc1C(=O)Nc1ccc(Cl)nc1` [Example E66, 4-amino-N-(6-chloropyridin-3-yl)-2-methyl-5-sulfamoylbenzamide], the inhibition at 0.5 µM was less than 50%. In the case of `Nc1ncc(C(=O)Nc2cc(F)c(F)c(F)c2)cc1S(=O)(=O)N[C@H]1CC[C@H](O)CC1` [Example E58, trans-6-amino-5-(N-(4-hydroxycyclohexyl)sulfamoyl)-N-(3,4,5-trifluorophenyl)nicotinamide], the inhibition at 0.1 µM was less than 50%. With `Nc1ccc(C(=O)Nc2cc(F)c(F)c(F)c2)cc1S(=O)(=O)NC1(CO)COC1` [Example E38, 4-amino-3-(N-(3-(hydroxymethyl)oxetan-3-yl)sulfamoyl)-N-(3,4,5-trifluorophenyl)benzamide], the inhibition at 0.5 µM was greater than 50%. In the case of `Nc1ccc(C(=O)Nc2cc(F)c(F)c(F)c2)cc1S(=O)(=O)NC1CC1` [Example E20, 4-amino-3-(N-cyclopropylsulfamoyl)-N-(3,4,5-trifluorophenyl)benzamide], the inhibition at 0.5 µM was greater than 50%. Still for that read-out and setting: for `Cc1cc(N)c(S(=O)(=O)N[C@H]2CC[C@H](O)CC2)cc1C(=O)Nc1cc(F)c(F)c(F)c1` [Example E23, trans-4-amino-5-(N-(4-hydroxycyclohexyl)sulfamoyl)-2-methyl-N-(3,4,5-trifluorophenyl)benzamide] the value was greater than 50%. As to `Cc1cc(NC(=O)c2cc(S(N)(=O)=O)c(N)cc2C)ccc1F` [Example E40, 4-amino-N-(4-fluoro-3-methylphenyl)-2-methyl-5-sulfamoylbenzamide], the “HBV inhibition % (conc μM)” value (concentration not given, HepAD38) was “A (HBV inhibition greater than 50% at the concentration indicated in the table)”.

Consider `Nc1ccc(C(=O)Nc2cc(F)c(F)c(F)c2)cc1S(=O)(=O)N[C@@H]1CC[C@H](O)C1` [Example E49, 4-amino-3-(N-((1R,3S)-3-hydroxycyclopentyl)sulfamoyl)-N-(3,4,5-trifluorophenyl)benzamide], for which the inhibition at 0.5 µM is greater than 50%. Consider `Nc1ccc(C(=O)Nc2cc(F)c(F)c(F)c2)cc1S(=O)(=O)NCC1(O)CCCCC1` [Example E39, 4-amino-3-(N-((1-hydroxycyclohexyl)methyl)sulfamoyl)-N-(3,4,5-trifluorophenyl)benzamide], for which the inhibition at 0.5 µM is greater than 50%. With `Nc1ccc(S(=O)(=O)N2CCC(O)CC2)cc1C(=O)Nc1cc(F)c(F)c(F)c1` [Example E62, 2-amino-5-((4-hydroxypiperidin-1-yl)sulfonyl)-N-(3,4,5-trifluorophenyl)benzamide], the EC50 was less than 1000 nM. Regarding `Nc1ccc(C(=O)Nc2cc(F)c(F)c(F)c2)cc1S(=O)(=O)NCC(O)CO` (centres unmarked) [Example E56, 4-amino-3-(N-(2,3-dihydroxypropyl)sulfamoyl)-N-(3,4,5-trifluorophenyl)benzamide], the inhibition at 0.5 µM was greater than 50%. Regarding `CC(C)(C)OC(=O)N1CC[C@H](NS(=O)(=O)c2cc(C(=O)Nc3cc(F)c(F)c(F)c3)ccc2N)C1` [Example E34, tert-butyl (S)-3-((2-amino-5-((3,4,5-trifluorophenyl)carbamoyl)phenyl)sulfonamido)pyrrolidine-1-carboxylate], the inhibition at 0.5 µM was greater than 50%. As to `Nc1ccc(C(=O)Nc2cc(F)c(F)c(F)c2)cc1S(=O)(=O)N[C@H]1CC[C@H](O)CC1` [Example E21, trans-4-amino-3-(N-(4-hydroxycyclohexyl)sulfamoyl)-N-(3,4,5-trifluorophenyl)benzamide], the EC50 is less than 1000 nM.

Take `Nc1ncc(C(=O)Nc2cc(F)c(F)c(F)c2)cc1S(N)(=O)=O` [Example E37, 6-amino-5-sulfamoyl-N-(3,4,5-trifluorophenyl)nicotinamide]: the inhibition at 0.5 µM is less than 50%. In the case of `Cc1cc(N)c(S(=O)(=O)N[C@H](C)C(F)(F)F)cc1C(=O)Nc1cc(F)c(F)c(F)c1` [Example E63, (R)-4-amino-2-methyl-N-(3,4,5-trifluorophenyl)-5-(N-(1,1,1-trifluoropropan-2-yl)sulfamoyl)benzamide], the inhibition at 0.1 µM was greater than 50%. `Nc1ccc(S(=O)(=O)N[C@H]2CC[C@H](O)CC2)cc1C(=O)Nc1cc(F)c(F)c(F)c1` [Example E61, trans-2-amino-5-(N-(4-hydroxycyclohexyl)sulfamoyl)-N-(3,4,5-trifluorophenyl)benzamide]: the half-maximal effective concentration (EC50) is less than 1000 nM. As for `Nc1ccc(C(=O)Nc2cc(F)c(F)c(F)c2)cc1S(=O)(=O)N[C@H]1C[C@@H](O)C1` [Example E24], the inhibition at 0.5 µM is greater than 50%.

Regarding `CNS(=O)(=O)c1cc(C(=O)Nc2cc(F)c(F)c(F)c2)ccc1N` [Example E2, 4-amino-3-(N-methylsulfamoyl)-N-(3,4,5-trifluorophenyl)benzamide], the inhibition at 1 µM was greater than 50%. On to `Nc1ccc(C(=O)Nc2cc(F)c(F)c(F)c2)cc1S(=O)(=O)NC1COC1` [Example E33, 4-amino-3-(N-(oxetan-3-yl)sulfamoyl)-N-(3,4,5-trifluorophenyl)benzamide], for which the inhibition at 0.5 µM is greater than 50%. As to `CC(C)(C)OC(=O)N[C@H]1CCC[C@H]1NS(=O)(=O)c1cc(C(=O)Nc2cc(F)c(F)c(F)c2)ccc1N` [Example E52, tert-butyl ((1S,2R)-2-((2-amino-5-((3,4,5-trifluorophenyl)carbamoyl)phenyl)sulfonamido)cyclopentyl)carbamate], the inhibition at 1 µM was greater than 50%. On to `Nc1ccc(C(=O)Nc2ccc(F)c(Cl)c2)cc1S(=O)(=O)N[C@H]1CC[C@H](O)CC1` [Example E43, trans-4-amino-N-(3-chloro-4-fluorophenyl)-3-(N-(4-hydroxycyclohexyl)sulfamoyl)benzamide], for which the inhibition at 0.5 µM was greater than 50%. On the same count and under the same terms, under `Nc1ccc(C(=O)Nc2cc(F)c(F)c(F)c2)cc1S(=O)(=O)N[C@H]1CCNC1` [Example E35, (S)-4-amino-3-(N-(pyrrolidin-3-yl)sulfamoyl)-N-(3,4,5-trifluorophenyl)benzamide] stands less than 50%; under `Nc1ccc(C(=O)Nc2ccc(Cl)nc2)cc1S(N)(=O)=O` [Example E11, 4-amino-N-(6-chloropyridin-3-yl)-3-sulfamoylbenzamide], less than 50%.

As to `Nc1ccc(C(=O)Nc2cc(F)c(F)c(F)c2)cc1S(=O)(=O)N[C@@H]1CC[C@@H](O)C1` (relative stereo) [Example E57, trans-4-amino-3-(N-(3-hydroxycyclopentyl)sulfamoyl)-N-(3,4,5-trifluorophenyl)benzamide], the inhibition at 0.5 µM was greater than 50%. For `Nc1cc(Cl)c(C(=O)Nc2cc(F)c(F)c(F)c2)cc1S(N)(=O)=O` [Example E5, 4-amino-2-chloro-5-sulfamoyl-N-(3,4,5-trifluorophenyl)benzamide], the EC50 is less than 1000 nM. In the case of `Nc1ccc(C(=O)Nc2ccc(F)c(F)c2F)cc1S(N)(=O)=O` [Example E14, 4-amino-3-sulfamoyl-N-(2,3,4-trifluorophenyl)benzamide], the inhibition at 0.5 µM is less than 50%. As for `Cc1cc(N)c(S(N)(=O)=O)cc1C(=O)Nc1ccc(F)c(Cl)c1` [Example E60, 4-amino-N-(3-chloro-4-fluorophenyl)-2-methyl-5-sulfamoylbenzamide], the EC50 was less than 1000 nM. Consider `Nc1ccc(C(=O)Nc2cc(F)c(F)c(F)c2)cc1S(=O)(=O)N[C@H]1CC[C@@H](O)CC1` [Example E22, cis-4-amino-3-(N-(4-hydroxycyclohexyl)sulfamoyl)-N-(3,4,5-trifluorophenyl)benzamide], for which the inhibition at 0.5 µM is greater than 50%.
